# Test results as given in PubChem BioAssay (NCI).
# “And” between values parts separate entries of the source, which are not always exact repeats. Equal values may be shown once.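 Cultured in 96-well plates, cells were exposed to test compound for 48 hours across five concentrations. Here, GI50 denotes the concentration required for 50% inhibition of growth. TGI: total growth inhibition.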
# Columns and labels:
# Assay in all cases: NCI anticancer screen, dose series, 48 h
# CCRF-CEM leukemia = tested on: CCRF-CEM leukemia
# HCT-116 colon = tested on: HCT-116 colon
# M14 melanoma = tested on: M14 melanoma
# OVCAR-4 ovarian = tested on: OVCAR-4 ovarian
# OVCAR-5 ovarian = tested on: OVCAR-5 ovarian
# OVCAR-8 ovarian = tested on: OVCAR-8 ovarian
# SK-MEL-2 melanoma = tested on: SK-MEL-2 melanoma
# SK-MEL-28 melanoma = tested on: SK-MEL-28 melanoma
# SNB-19 CNS = tested on: SNB-19 CNS
# U251 CNS = tested on: U251 CNS
Compound,TGI (CCRF-CEM leukemia),TGI (HCT-116 colon),TGI (M14 melanoma),TGI (OVCAR-4 ovarian),TGI (OVCAR-5 ovarian),TGI (OVCAR-8 ovarian),TGI (SK-MEL-2 melanoma),TGI (SK-MEL-28 melanoma),TGI (SNB-19 CNS),TGI (U251 CNS),GI50 (CCRF-CEM leukemia),GI50 (HCT-116 colon),GI50 (M14 melanoma),GI50 (OVCAR-4 ovarian),GI50 (OVCAR-5 ovarian),GI50 (OVCAR-8 ovarian),GI50 (SK-MEL-2 melanoma),GI50 (SK-MEL-28 melanoma),GI50 (SNB-19 CNS),GI50 (U251 CNS)
COc1c2nc(CCl)[nH]c(=O)c2c(OC)c2nc(CCl)[nH]c(=O)c12,> 100 µM,> 100 µM,> 100 µM,> 100 µM,> 100 µM,> 100 µM,> 100 µM,> 100 µM,> 100 µM,> 100 µM,–,–,–,–,–,–,–,–,–,–
O=C(O[C@H]1CN[C@H](C#Cc2cc3ncnc(Nc4ccc5c(ccn5Cc5cc(F)ccc5F)c4)c3s2)C1)N1CCOCC1,24.9 µM,7.44 µM,17.1 µM,16.5 µM,11.1 µM,15.4 µM,12.7 µM,7.98 µM,> 25 µM,8.25 µM,5.59 µM,3.19 µM,6.26 µM,4.51 µM,1.07 µM,4.11 µM,5.35 µM,4.06 µM,4.46 µM,3.61 µM
Cc1ccccc1NC(=O)N/C(N)=N/c1nc(-c2cccc([N+](=O)[O-])c2)cs1,> 100 µM,3.18 µM,19.6 µM,> 100 µM,> 100 µM,15.2 µM,17.3 µM,> 100 µM,15.8 µM,10.5 µM,3 µM,1.58 µM,2.15 µM,3.53 µM,4.34 µM,2.88 µM,3.21 µM,2.55 µM,3.29 µM,2.76 µM
COc1ccc([N+]2=NC(c3ccc([N+](=O)[O-])cc3)=NN(c3ccccc3)C2)cc1,92.8 µM and 52.1 µM,> 100 µM,–,75.5 µM and > 100 µM,> 100 µM,> 100 µM,–,> 100 µM,> 100 µM,> 100 µM,–,–,–,–,–,–,–,–,–,–
NOCC(=O)O,> 100 µM,> 100 µM,> 100 µM,> 100 µM,> 100 µM,> 100 µM,> 100 µM,> 100 µM,> 100 µM,> 100 µM,94 µM,66.8 µM,82.8 µM,> 100 µM,> 100 µM,> 100 µM,> 100 µM,> 100 µM,> 100 µM,> 100 µM
COc1ccc(NC(=O)C(=O)C(C(=O)c2ccccc2)C2OC(=O)c3ccccc32)c([N+](=O)[O-])c1 (stereo unspecified),> 100 µM,> 100 µM,> 100 µM,> 100 µM,> 100 µM,> 100 µM,> 100 µM,> 100 µM,> 100 µM,> 100 µM,–,–,–,–,–,–,–,–,–,–
O=C1c2ccccc2-c2c1c1ccccc1c(=O)n2CCCNCCCn1ccnc1,1.71 µM,2.01 µM,1.13 µM,28.1 µM,4.93 µM,> 37.3 µM,8.17 µM,8.92 µM,13.1 µM,1.42 µM,0.246 µM,0.598 µM,0.51 µM,6.34 µM,1.55 µM,2.44 µM,2.56 µM,2.94 µM,1.47 µM,0.285 µM
Cc1cc(C)c([O-])c(CN(C)CCN(C)Cc2cc(C)cc(C)c2[O-])c1.O=C([O-])c1cccc(C(=O)[O-])n1.[Ti+4],–,22.3 µM,> 100 µM,> 100 µM,> 100 µM,> 100 µM,–,8.37 µM,> 100 µM,> 100 µM,–,0.383 µM,1.7 µM,2.87 µM,2.31 µM,2.8 µM,–,2.42 µM,3.25 µM,2.92 µM
COC(=O)c1s/c(=N\C(=S)N(C)C)n(-c2ccccc2)c1C(=O)OC,–,> 100 µM,> 100 µM,> 100 µM,> 100 µM,> 100 µM,> 100 µM,> 100 µM,> 100 µM,> 100 µM,–,–,–,–,–,–,–,–,–,–
Nc1c(C(=O)c2ccc(Cl)cc2)sc(Nc2ccccc2)c1-c1nc2ccccc2s1,> 100 µM,> 100 µM,> 100 µM,–,> 100 µM,> 100 µM,21 µM,> 100 µM,> 100 µM,36.3 µM,13.9 µM,5.04 µM,2.65 µM,–,> 100 µM,2.68 µM,3.89 µM,4.31 µM,4.56 µM,3.06 µM
COC(=O)c1cc2c(cc1Cl)SC(N(N(C)C)S(=O)(=O)c1ccc(Br)s1)=NS2(=O)=O,72.5 µM,73.6 µM,49.2 µM,53.7 µM,81.1 µM,–,9.66 µM,35.3 µM,58.4 µM,88.2 µM,23.1 µM,26.6 µM,23.2 µM,19.2 µM,29.8 µM,–,3.2 µM,17.8 µM,21.2 µM,30.2 µM
O=C1OC(CC(=O)c2ccc(Cl)c(Cl)c2)C(Cl)=C1Cl (stereo unspecified),62.5 µM,–,> 100 µM,> 100 µM,> 100 µM,> 100 µM,> 100 µM,> 100 µM,> 100 µM,> 100 µM,–,–,–,–,–,–,–,–,–,–
Cn1ccnc1CC(C)(O)c1ccccc1 (stereo unspecified),–,> 100 µM,> 100 µM,> 100 µM,> 100 µM,> 100 µM,> 100 µM,> 100 µM,> 100 µM,> 100 µM,–,–,–,–,–,–,–,–,–,–
CC(C)(C#N)c1cc(Cn2cncn2)cc(C(C)(C)C#N)c1,2480 µM,–,–,> 10000 µM,> 10000 µM,> 10000 µM,3590 µM,> 10000 µM,> 10000 µM,> 10000 µM,393 µM,–,–,> 10000 µM,> 10000 µM,> 10000 µM,–,> 10000 µM,> 10000 µM,> 10000 µM
O=[N+]([O-])c1cccc(C2N3CCCCC3[C@@H]3c4[nH]c5ccccc5c4CCN23)c1 (stereo partly specified),41 µM,–,28 µM,32.2 µM,32.7 µM,> 100 µM,22 µM,29.8 µM,45.6 µM,28.4 µM,–,–,–,–,–,–,–,–,–,–
Cc1c[nH]c2c(O)cc3c(c12)[C@H](CCl)CN3C(=O)c1cc2cc(NC(=O)Nc3ccc4[nH]c(C(=O)N5C[C@@H](CCl)c6c5cc(O)c5[nH]cc(C)c65)cc4c3)ccc2[nH]1,–,–,–,48 µM,–,16.3 µM and 2e-06 µg/mL and 0.000888 µg/mL,89.3 µM and 8.9e-06 µg/mL and 0.00276 µg/mL,–,–,–,–,0.0031 µM,0.00359 µM,–,–,–,–,–,–,–
